Measurements as given in patent US20080064718A1, “INHIBITORS OF PROTEIN TYROSINE KINASE ACTIVITY” (priority 2006, published 2008).
Like-named read-outs stand apart in the source and are kept apart here.

Assays:
[1] = system: DU145; assay: DU145 scattering; type: cell-based; details: DU145 cells, read-out: CMET DU145 SCATT HEAL- IC50 UM
[2] = target: T1, c-Met (Homo sapiens, UniProt P08581); assay: c-Met phosphorylation direct ELISA in MKN45 cells; type: cell-based; details: 3 h treatment
T1 construct: endogenous in cells; host or cells: MKN45 gastric carcinoma cells
T1 sequence (P08581 25-1390): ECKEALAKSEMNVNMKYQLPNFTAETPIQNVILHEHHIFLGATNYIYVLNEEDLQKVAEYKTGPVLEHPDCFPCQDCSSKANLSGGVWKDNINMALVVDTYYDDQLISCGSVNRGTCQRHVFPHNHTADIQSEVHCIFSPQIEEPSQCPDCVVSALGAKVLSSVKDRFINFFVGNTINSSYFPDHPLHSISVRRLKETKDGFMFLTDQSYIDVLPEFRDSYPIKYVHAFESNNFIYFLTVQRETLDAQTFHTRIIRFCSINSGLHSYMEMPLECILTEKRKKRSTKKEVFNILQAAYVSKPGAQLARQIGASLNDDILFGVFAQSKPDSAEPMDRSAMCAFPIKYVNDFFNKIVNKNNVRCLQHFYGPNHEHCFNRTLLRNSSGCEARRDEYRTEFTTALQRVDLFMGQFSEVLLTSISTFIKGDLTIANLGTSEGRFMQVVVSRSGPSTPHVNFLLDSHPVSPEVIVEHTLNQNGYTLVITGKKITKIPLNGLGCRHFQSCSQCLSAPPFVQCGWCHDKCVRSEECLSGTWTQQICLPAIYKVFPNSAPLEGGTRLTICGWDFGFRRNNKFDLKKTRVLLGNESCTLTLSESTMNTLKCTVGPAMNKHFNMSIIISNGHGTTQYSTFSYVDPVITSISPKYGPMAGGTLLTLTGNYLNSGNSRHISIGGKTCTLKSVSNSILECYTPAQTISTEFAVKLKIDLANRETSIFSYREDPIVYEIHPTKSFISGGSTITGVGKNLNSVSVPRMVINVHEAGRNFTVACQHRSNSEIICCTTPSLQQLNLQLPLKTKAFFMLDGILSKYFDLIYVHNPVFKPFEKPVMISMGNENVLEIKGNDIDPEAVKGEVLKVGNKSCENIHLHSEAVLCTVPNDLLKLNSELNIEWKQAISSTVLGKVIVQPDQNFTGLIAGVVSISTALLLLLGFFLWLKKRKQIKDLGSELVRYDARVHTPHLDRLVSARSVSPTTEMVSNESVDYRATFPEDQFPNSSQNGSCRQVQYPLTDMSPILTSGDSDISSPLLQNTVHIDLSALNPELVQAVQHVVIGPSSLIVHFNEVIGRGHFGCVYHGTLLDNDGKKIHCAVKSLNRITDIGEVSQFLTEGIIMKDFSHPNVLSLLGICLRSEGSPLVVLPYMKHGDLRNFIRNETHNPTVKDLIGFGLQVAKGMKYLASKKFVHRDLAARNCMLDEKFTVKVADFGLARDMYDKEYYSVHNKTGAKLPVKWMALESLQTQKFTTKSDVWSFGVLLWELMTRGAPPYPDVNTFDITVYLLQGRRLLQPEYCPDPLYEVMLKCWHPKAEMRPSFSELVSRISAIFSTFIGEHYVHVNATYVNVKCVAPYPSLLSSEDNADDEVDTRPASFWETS
Experimental: Alternatively, the following assay is used to determine inhibition of c-Met phosphorylation.
The c-Met receptor is expressed in numerous cancer cell lines derived from tumors of epithelial origin. In MKN45 gastric carcinoma cells the c-Met gene is amplified, resulting in several-fold overexpression of the receptor and its constitutive activation.
Cell treatments: MKN45 cells are seeded into wells of 96-well plates at a density of 3×10^4 cells/well in RPMI medium supplemented with 10% FBS. […] Inhibitors are added to the medium in triplicate wells at the indicated doses.
After an overnight protein binding incubation at 4° C., lysates are aspirated and wells are blocked for 1 h at 37° C. in TBST supplemented with 5% BSA. Plates are incubated with the primary antibodies anti-phospho-Tyrosine (Millipore, 4G10) diluted 1/15000 in TBST supplemented with 5% BSA for 1 h at room temperature. Plates are washed 3 times on a plate washer (SkanWasher, Molecular Devises), and incubated with the reporter antibody […] (Sigma) diluted 1/15000 in TBST supplemented with 5% BSA, for 1 h at room temperature. Plates are washed 3 times with TBST using on a plate washer and subsequently incubated with chemiluminescent substrate solution (ECL, Roche). Luminescence signal is captured on a Polar Star Optima apparatus (BMG LabTech).
Average values of the triplicate samples are used to prepare IC50 curves using a 4-parameter fit model. These curves are calculated using, for example, GraFit 5.0 software. For assay standardization purpose, an internal control is included on each experimental test plate.

[3] = system: A549; assay: A549 inhibition of wound healing; type: cell-based; details: read-out: A549 INHIB WND ING IC50 UM
[4] = target: recombinant human c-Met/HGF receptor (Homo sapiens, UniProt P08581); assay: In vitro receptor tyrosine kinase assay, c-Met/HGF receptor (DELFIA)
Chain of recombinant human c-Met/HGF receptor (P08581 1078-1337): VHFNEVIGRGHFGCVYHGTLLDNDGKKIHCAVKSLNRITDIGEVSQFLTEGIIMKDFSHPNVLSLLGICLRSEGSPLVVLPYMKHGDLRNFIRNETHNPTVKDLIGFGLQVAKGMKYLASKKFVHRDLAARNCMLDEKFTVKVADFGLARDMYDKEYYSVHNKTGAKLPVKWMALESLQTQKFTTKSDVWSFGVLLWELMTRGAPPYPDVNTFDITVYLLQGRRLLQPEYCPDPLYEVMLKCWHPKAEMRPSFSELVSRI

[5] = target: T2, VEGF receptor KDR (Homo sapiens, UniProt P35968); assay: In vitro receptor tyrosine kinase assay, VEGF receptor KDR (DELFIA); type: biochemical; details: GST-VEGFR2 806-1356, ATP 0.6 uM
T2 construct: made in house; host or cells: Sf9 cells (Spodoptera frugiperda), recombinant baculovirus
T2 sequence (P35968 806-1356): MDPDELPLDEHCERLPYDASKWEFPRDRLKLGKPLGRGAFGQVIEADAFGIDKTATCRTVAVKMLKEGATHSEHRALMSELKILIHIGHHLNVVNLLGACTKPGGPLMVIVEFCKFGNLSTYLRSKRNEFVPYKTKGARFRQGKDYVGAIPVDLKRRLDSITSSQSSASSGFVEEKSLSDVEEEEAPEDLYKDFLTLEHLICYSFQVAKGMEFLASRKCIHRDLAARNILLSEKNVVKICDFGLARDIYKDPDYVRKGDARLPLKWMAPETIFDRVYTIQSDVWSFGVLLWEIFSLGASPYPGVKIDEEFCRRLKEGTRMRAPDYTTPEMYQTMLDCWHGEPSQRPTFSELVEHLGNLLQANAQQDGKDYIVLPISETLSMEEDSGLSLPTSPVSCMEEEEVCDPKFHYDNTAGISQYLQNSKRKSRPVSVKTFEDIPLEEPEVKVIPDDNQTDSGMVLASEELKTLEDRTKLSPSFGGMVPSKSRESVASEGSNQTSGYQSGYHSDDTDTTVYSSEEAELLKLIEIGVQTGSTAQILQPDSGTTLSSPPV
From the text: In the case of VEGF receptor KDR a 1.6-kb cDNA corresponding to the catalytic domain of VEGFR2 or KDR (Genbank accession number AF035121 amino acid 806 to 1356) is cloned into the Pst I site of the pDEST20 Gateway vector (Invitrogen) for the production of a GST-tagged version of that enzyme.
The GST-VEGFR2806-1356 protein is expressed in Sf9 cells (Spodoptera frugiperda) upon infection with recombinant baculovirus construct.
The supernatant is loaded onto a GST-agarose column (Sigma) equilibrated with PBS pH 7.3. Following a four column volume (CV) wash with PBS pH 7.3+1% Triton X-100 and 4 CV wash with buffer B (50 mM Tris pH 8.0, 20% glycerol and 100 mM NaCl), bound proteins are step eluted with 5 CV of buffer B supplemented with 5 mM DTT and 15 mM glutathion. […] Final GST-VEGFR2806-1356 protein preparations concentrations are about 0.7 mg/ml with purity approximating 70%.

Compound	IC50 ([1]; Homo sapiens, DU-145) [µM]	IC50 [2] [µM]	IC50 ([3]; Homo sapiens, A549 cells) [µM]	IC50 [4] [µM]	IC50 ([5]; read-out: VEGFR IC50) [µM]	IC50 [1] [µM]	IC50 ([3]; A549 cells) [µM]	IC50 ([3]; Homo sapiens, A549, A549 cells) [µM]	IC50 ([5]; read-out: VEGFR (IC50)) [µM]
COCCNCc1cccc(-c2cc3nccc(Oc4ccc(NC(=O)N5CCN(c6ccccc6)C5=O)cc4F)c3s2)c1	< 0.25	< 0.25	0.25 to 0.5	< 0.25	< 0.25	–	–	–	–
CS(=O)(=O)CCNCc1ccc(-c2cc3nccc(Oc4ccc(NC(=O)N5CCN(c6ccccc6)C5=O)cc4F)c3s2)cc1	0.25 to 0.5	< 0.25	> 1	< 0.25	< 0.25	–	–	–	–
Cn1cnc(-c2cc3nccc(Oc4ccc(NC(=O)c5cnn(-c6ccccc6)c5)cc4F)c3s2)c1 [drawing 202]	–	–	–	–	0.5 to 1	> 1	> 1	–	–
CN(C)C(=O)c1ccc(-c2cc3nccc(Oc4ccc(NC(=O)c5cnn(-c6ccc(F)cc6)c5C(F)(F)F)cc4F)c3s2)cc1	> 1	–	> 1	< 0.25	> 1	–	–	–	–
Cn1ccnc1-c1cc2nccc(Oc3ccc(NC(=O)c4ncc(-c5ccccc5)s4)cc3F)c2s1	–	–	–	> 1	> 1	–	–	–	–
CS(=O)(=O)c1ccc(-c2cc3nccc(Oc4ccc(NC(=O)c5cnn(-c6ccccc6)c5C(F)(F)F)cc4F)c3s2)nc1	0.25 to 0.5	–	< 0.25	< 0.25	> 1	–	–	–	–
CCOC(=O)c1ccc(-c2cc3nccc(Oc4ccc(NC(=O)c5cnn(-c6ccccc6)c5C(F)(F)F)cc4F)c3s2)cc1	> 1	–	> 1	> 1	> 1	–	–	–	–
Cn1ccnc1-c1cc2nccc(Oc3ccc(NC(=O)c4ccc(-c5ccccc5)cc4F)cc3F)c2s1	–	–	–	< 0.25	> 1	–	–	–	–
COC[C@H](C)NCc1cccc(-c2cc3nccc(Oc4ccc(NC(=O)N5CCN(c6ccccc6)C5=O)cc4F)c3s2)c1	0.25 to 0.5	< 0.25	0.25 to 0.5	< 0.25	< 0.25	–	–	–	–
CN(C)C(=O)c1ccc(-c2cc3nccc(Oc4ccc(NC(=O)c5cnn(-c6ccccc6)c5C(F)(F)F)cc4F)c3s2)nc1	0.25 to 0.5	–	–	–	> 1	–	–	0.25 to 0.5	–
CS(=O)(=O)CCNCc1ccc(-c2cc3nccc(Oc4ccc(NC(=O)c5cnn(-c6ccccc6)c5C(F)(F)F)cc4F)c3s2)cc1	> 1	–	–	–	> 1	–	–	> 1	–
CCn1cnc(-c2cc3nccc(Oc4ccc(N(C)C(=O)N5CCN(c6ccccc6)C5=O)cc4F)c3s2)c1	> 1	0.5 to 1	> 1	0.5 to 1	< 0.25	–	–	–	–
COC[C@H](C)NCc1ccc(-c2cc3nccc(Oc4ccc(NC(=O)N5CCN(c6ccccc6)C5=O)cc4F)c3s2)cc1	< 0.25	< 0.25	< 0.25	< 0.25	< 0.25	–	–	–	–
COCCNCc1ccc(-c2cc3nccc(Oc4ccc(NC(=O)c5cnn(-c6ccccc6)c5C(F)(F)F)cc4F)c3s2)nc1	0.25 to 0.5	0.25 to 0.5	0.25 to 0.5	< 0.25	> 1	–	–	–	–
Cc1c(C(=O)Nc2ccc(Oc3ccnc4cc(-c5cn(C)cn5)sc34)c(F)c2)cnn1-c1ccccc1	> 1	–	–	–	> 1	–	–	0.25 to 0.5	–
CS(=O)(=O)c1ccc(-c2cc3nccc(Oc4ccc(NC(=O)N5CCN(c6ccccc6)C5=O)cc4F)c3s2)cc1	–	< 0.25	–	0.25 to 0.5	0.25 to 0.5	–	–	–	–
CN(C)C(=O)c1ccc(-c2cc3nccc(Oc4ccc(NC(=O)c5cnn(-c6ccccc6)c5C(F)(F)F)cc4F)c3s2)cc1	0.25 to 0.5	–	–	–	> 1	–	–	< 0.25	–

Compound	IC50 ([1]; Homo sapiens, DU-145) [µM]	IC50 [2] [µM]	IC50 ([3]; Homo sapiens, A549 cells) [µM]	IC50 [4] [µM]	IC50 ([5]; read-out: VEGFR IC50) [µM]	IC50 [1] [µM]	IC50 ([3]; A549 cells) [µM]	IC50 ([3]; Homo sapiens, A549, A549 cells) [µM]	IC50 ([5]; read-out: VEGFR (IC50)) [µM]
COCCN(C)C(=O)c1ccc(-c2cc3nccc(Oc4ccc(NC(=O)c5cnn(-c6ccccc6)c5C(F)(F)F)cc4F)c3s2)nc1	> 1	–	0.25 to 0.5	< 0.25	> 1	–	–	–	–
O=C(O)c1ccc(-c2cc3nccc(Oc4ccc(NC(=O)c5cnn(-c6ccccc6)c5C(F)(F)F)cc4F)c3s2)nc1	> 1	> 1	> 1	< 0.25	> 1	–	–	–	–
Cn1cnc(-c2cc3nccc(Oc4ccc(NC(CC(=O)Nc5ccccc5)C(F)(F)F)cc4F)c3s2)c1 (stereo not drawn) [Compound 8, 4,4,4-Trifluoro-3-(3-fluoro-4-(2-(1-methyl-1H-imidazol-4-yl)thieno[3,2-b]pyridin-7-yloxy)phenylamino)-N-phenylbutanamide]	–	–	–	–	–	–	–	–	< 0.25
Cn1cnc(-c2cc3nccc(Oc4ccc(NC(=O)c5cnn(-c6ccccc6)c5C(F)(F)F)cc4F)c3s2)c1	> 1	0.5 to 1	0.25 to 0.5	< 0.25	> 1	–	–	–	–
CN(C)CC(=O)N1CC=C(c2cc3nccc(Oc4ccc(NC(=O)N5CCN(c6ccccc6)C5=O)cc4F)c3s2)CC1	< 0.25	< 0.25	< 0.25	< 0.25	< 0.25	–	–	–	–
Cn1cnc(-c2cc3nccc(Oc4ccc(NC(=O)c5cnn(C)c5C(F)(F)F)cc4F)c3s2)c1	> 1	–	> 1	< 0.25	0.5 to 1	–	–	–	–
Cn1cnc(-c2cc3nccc(Oc4ccc(NC(=O)CC(Nc5ccccc5)C(F)(F)F)cc4F)c3s2)c1 (stereo not drawn) [Compound 12, 4,4,4-Trifluoro-N-(3-fluoro-4-(2-(1-methyl-1H-imidazol-4-yl)thieno[3,2-b]pyridin-7-yloxy)phenyl)-3-(phenylamino)butanamide]	–	–	–	–	–	–	–	–	< 0.25
C=CCN1CCN(C(=O)Nc2ccc(Oc3ccnc4cc(-c5cn(CC)cn5)sc34)c(F)c2)C1=O	0.25 to 0.5	0.25 to 0.5	0.25 to 0.5	< 0.25	< 0.25	–	–	–	–
CN(C)CCOC(=O)N1CC=C(c2cc3nccc(Oc4ccc(NC(=O)N5CCN(c6ccccc6)C5=O)cc4F)c3s2)CC1	0.25 to 0.5	< 0.25	0.25 to 0.5	< 0.25	< 0.25	–	–	–	–
Cn1cnc(-c2cc3nccc(Oc4ccc(NC(=O)c5cnn(-c6ccccc6)c5)cc4F)c3s2)c1 [drawing 192]	> 1	–	–	–	> 1	–	0.25 to 0.5	–	–
O=C(Nc1ccc(Oc2ccnc3cc(-c4cnn(C5CCNCC5)c4)sc23)c(F)c1)N1CCN(c2ccccc2)C1=O	0.25 to 0.5	< 0.25	> 1	< 0.25	< 0.25	–	–	–	–
COCCNC(=O)c1ccc(-c2cc3nccc(Oc4ccc(NC(=O)c5cnn(-c6ccccc6)c5C(F)(F)F)cc4F)c3s2)nc1	> 1	–	–	–	> 1	–	–	> 1	–
O=C(Nc1ccc(Oc2ccnc3cc(-c4ccc(CNC5CC5)cc4)sc23)c(F)c1)N1CCN(c2ccccc2)C1=O	< 0.25	< 0.25	0.25 to 0.5	< 0.25	< 0.25	–	–	–	–
COCCN(C)Cc1ccc(-c2cc3nccc(Oc4ccc(NC(=O)NNc5ccccc5)cc4F)c3s2)cc1	> 1	< 0.25	0.25 to 0.5	0.25 to 0.5	> 1	–	–	–	–
O=C(Nc1ccc(Oc2ccnc3cc(-c4cccc[n+]4[O-])sc23)c(F)c1)N1CCN(c2ccc(F)cc2)C1=O	< 0.25	< 0.25	< 0.25	< 0.25	< 0.25	–	–	–	–
O=C(Nc1ccc(Oc2ccnc3cc(-c4ccc(CNCC(F)(F)F)cc4)sc23)c(F)c1)N1CCN(c2ccccc2)C1=O	> 1	0.5 to 1	> 1	–	0.25 to 0.5	–	–	–	–
Cn1ccnc1-c1cc2nccc(Oc3ccc(NC(=O)c4cnn(-c5ccccc5)c4C(F)(F)F)cc3F)c2s1	> 1	–	–	–	> 1	–	–	> 1	–
